The values below come from US12404265B2, “Substituted pyridine derivatives as SARM1 inhibitors” (Nura Bio, Inc., priority 2020, dated 2025).

Structures are written as SMILES.

In this assay the target is T1, human SARM1(50-724) (Homo sapiens, UniProt Q6SZW1).
T1 construct: 40 nM human SARM1(50-724)
T1 sequence (Q6SZW1 50-724): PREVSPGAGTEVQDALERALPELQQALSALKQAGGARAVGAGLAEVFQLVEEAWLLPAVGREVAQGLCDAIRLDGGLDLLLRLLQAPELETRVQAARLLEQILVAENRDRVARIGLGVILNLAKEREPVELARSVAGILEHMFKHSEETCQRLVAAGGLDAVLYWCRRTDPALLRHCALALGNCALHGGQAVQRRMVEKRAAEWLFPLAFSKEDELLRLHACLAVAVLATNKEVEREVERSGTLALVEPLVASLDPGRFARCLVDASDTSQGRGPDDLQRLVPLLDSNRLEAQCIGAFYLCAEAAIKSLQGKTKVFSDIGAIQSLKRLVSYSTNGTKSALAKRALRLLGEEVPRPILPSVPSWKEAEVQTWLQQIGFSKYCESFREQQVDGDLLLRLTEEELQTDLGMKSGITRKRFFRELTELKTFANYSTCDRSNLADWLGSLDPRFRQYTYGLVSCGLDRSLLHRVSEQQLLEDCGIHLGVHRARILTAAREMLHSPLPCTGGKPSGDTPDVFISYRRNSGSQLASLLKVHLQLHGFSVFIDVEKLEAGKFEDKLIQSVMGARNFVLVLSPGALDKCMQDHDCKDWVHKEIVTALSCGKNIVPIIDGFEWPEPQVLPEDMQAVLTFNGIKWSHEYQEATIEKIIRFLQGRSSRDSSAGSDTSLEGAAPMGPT
Description: SARM1 NADase biochemical assay (HPLC of NAD and NAM). Particulars: 40 nM human SARM1(50-724), 0.3 mM NMN, 20 μM NAD, 60 minutes room temperature; dose-response from 100 μM, 1:3 dilution. In short, it runs like this: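 Human SARM1(50-724) at 40 nM with 0.3 mM NMN, 20 μM NAD, 1 mM TCEP in 25 mM HEPES pH 7.4, 10 mM KCl, 10 mM MgCl2, 1% DMSO; 60 min at room temperature, formic acid quench. NAD and NAM quantified by reverse-phase HPLC peak area; single point 50 μM or 1:3 series from 100 μM.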
Broadly, the IC50 is the concentration that gives 50% inhibition. For `Cc1c(NC(=O)OCc2ccc(Cl)cc2)cnn1-c1ccncc1` [Example 136, 4-Chlorobenzyl (5-methyl-1-(pyridin-4-yl)-1H-pyrazol-4-yl)carbamate], the IC50 was less than 1 µM.
In the case of `Cc1c(NC(=S)CCc2ccc(Cl)cc2)cnn1-c1ccncc1` [Example 137, 3-(4-Chlorophenyl)-N-(5-methyl-1-(pyridin-4-yl)-1H-pyrazol-4-yl)propanethioamide] it was 1 to 10 µM; in that of `Cc1c(-c2ccncc2)n[nH]c1N1CCC(c2ccc(Cl)cc2)CC1=O` (centres unmarked) [Example 138, 4-(4-Chlorophenyl)-1-(4-methyl-3-(pyridin-4-yl)-1H-pyrazol-5-yl)piperidin-2-one], less than 1 µM; in that of `Cc1c(-c2ccncc2)n[nH]c1N(C)C(=O)CCc1ccc(Cl)cc1` [Example 139], less than 1 µM.
In the case of `C#Cc1ccc(CCC(=O)Nc2[nH]nc(-c3ccncc3)c2C)cc1` [Example 140] it was less than 1 µM; in that of `Cc1c(-c2ccncc2)n[nH]c1NC(=O)NCc1ccc(C#N)cc1` [Example 141, 1-[(4-Cyanophenyl)methyl]-3-[4-methyl-3-(pyridin-4-yl)-1H-pyrazol-5-yl]urea], less than 1 µM; in that of `Cc1c(-c2ccncc2)n[nH]c1NC(=O)NCc1ccc(F)cc1` [Example 142, 1-[(4-Fluorophenyl)methyl]-3-[4-methyl-3-(pyridin-4-yl)-1H-pyrazol-5-yl]urea], less than 1 µM.
In the case of `Cc1c(-c2ccncc2)n[nH]c1NC(=O)NCc1ccc(Cl)nc1` [Example 143, 1-[(6-Chloropyridin-3-yl)methyl]-3-[4-methyl-3-(pyridin-4-yl)-1H-pyrazol-5-yl]urea] it was less than 1 µM; in that of `Cc1c(NC(=O)NCc2ccc(Cl)cc2)cnn1-c1ccncc1` [Example 144, 1-(4-Chlorobenzyl)-3-(5-methyl-1-(pyridin-4-yl)-1H-pyrazol-4-yl)urea], less than 1 µM.
With `O=C(NCc1cc(F)c(F)c(F)c1)Nc1[nH]nc(-c2ccncc2)c1Cl` [Example 145, 1-(4-Chloro-3-(pyridin-4-yl)-1H-pyrazol-5-yl)-3-(3,4,5-trifluorobenzyl)urea], the IC50 is less than 1 µM.
For `N#Cc1c(F)cc(CC2CCN(c3cc(-c4ccncc4)n[nH]3)C2=O)cc1F` (centres unmarked) [Example 146, 2,6-Difluoro-4-((2-oxo-1-(3-(pyridin-4-yl)-1H-pyrazol-5-yl)pyrrolidin-3-yl)methyl)benzonitrile] the value was less than 1 µM; for `O=C(CCc1ccc(Cl)cc1)Nc1[nH]nc(-c2ccncc2)c1Br` [Example 147, N-(4-Bromo-3-(pyridin-4-yl)-1H-pyrazol-5-yl)-3(4-chlorophenyl)propanamide], less than 1 µM.
For `Cc1c(-c2ccncc2)n[nH]c1NC(=O)N[C@H](C)c1ccc(Cl)cc1` [Example 148, (R)-1-(1-(4-Chlorophenyl)ethyl)-3-(4-methyl-3-(pyridin-4-yl)-1H-pyrazol-5-yl)urea] the value was 1 to 10 µM.
Consider `Cc1c(NC(=O)OCc2ccc(Cl)s2)cnn1-c1ccncc1` [Example 149, (5-Chlorothiophen-2-yl)methyl (5-methyl-1-(pyridin-4-yl)-1H-pyrazol-4-yl)carbamate], for which the IC50 is 1 to 10 µM.
Take `N[C@H](Cc1ccc(Cl)cc1)C(=O)Nc1cc(-c2ccncc2)n[nH]1` [Example 151, (R)-2-Amino-3-(4-chlorophenyl)-N-(3-(pyridin-4-yl)-1H-pyrazol-5-yl)propanamide]: the IC50 is less than 1 µM.
For `Cc1c(N2C(=O)[C@H](Cc3ccc(Cl)cc3)NC2(C)C)cnn1-c1ccncc1` [Example 152, (S)-5-(4-Chlorobenzyl)-2,2-dimethyl-3-(5-methyl-1-(pyridin-4-yl)-1H-pyrazol-4-yl)imidazolidin-4-one] the value was 1 to 10 µM; for `N[C@@H](Cc1ccc(Cl)cc1)C(=O)Nc1cc(-c2ccncc2)n[nH]1` [Example 153, (S)-2-Amino-3-(4-chlorophenyl)-N-(3-(pyridin-4-yl)-1H-pyrazol-5-yl)propanamide], less than 1 µM.
